Experimental data from patent US12187713B2, “Immunomodulators, compositions and methods thereof” (Betta Pharmaceuticals Co., Ltd, priority 2019, dated 2025).

The compounds below were run against PD-1/PD-L1 (Homo sapiens (Human), UniProt Q9NZQ7) (assay: PD-1/PD-L1 Binding Assay (Alphascreen)). Settings: numeric values.
Outline: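 PD-1/PD-L1 binding detected by anti-6×His acceptor and streptavidin donor beads after 120 min in the dark at 25 °C. Beforehand, the two proteins were incubated 15 min at 25 °C with inhibitor at 0.015–300 nM (1% DMSO). IC50 comes from a log concentration–response curve.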

PD-1/PD-L1, sequence (Q9NZQ7 19-238): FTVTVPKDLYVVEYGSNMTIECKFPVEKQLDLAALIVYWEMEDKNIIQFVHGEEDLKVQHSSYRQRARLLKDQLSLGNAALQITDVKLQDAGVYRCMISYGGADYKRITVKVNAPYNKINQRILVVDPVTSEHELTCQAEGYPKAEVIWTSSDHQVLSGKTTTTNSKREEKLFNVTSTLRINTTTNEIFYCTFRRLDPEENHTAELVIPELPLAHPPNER

SMILES	IC50
Cc1c(-c2ccc3c(c2)CNC3)cccc1-c1cccc(-c2nc3cc(CN4CCC[C@H]4C(=O)O)c(OC(F)F)cc3o2)c1C [Example 289, ((6-(difluoromethoxy)-2-(3′-(isoindolin-5-yl)-2,2′-dimethyl-[1,1′-biphenyl]-3-yl)benzo[d]oxazol-5-yl)methyl)-L-proline]	0.66 nM
Cc1c(-c2nc3cc(CN4CCCC4)c(F)c(F)c3[nH]2)cccc1-c1cccc(-c2nc3cc(CN4CCC[C@H]4C(=O)O)c(OC(F)F)cc3o2)c1C [Example 296]	12 nM
Cc1c(-c2nc3cc(CN4CCCC4)c(F)cc3[nH]2)cccc1-c1cccc(-c2nc3cc(CN4CCC[C@H]4C(=O)O)c(OC(F)F)cc3o2)c1C [Example 297]	26 nM
Cc1c(-c2nc3cc(CN4CCC[C@H]4C(=O)O)c(OC(F)F)cc3o2)cccc1-c1cccc(NC(=O)c2ccc(CNCCO)cn2)c1Cl [Example 302, ((2-(2′-chloro-3′-(5-(((2-hydroxyethyl)amino)methyl)picolinamido)-2-methyl-[1,1′-biphenyl]-3-yl)-6-(difluoromethoxy)benzo[d]oxazol-5-yl)methyl)-L-proline]	0.29 nM
Cc1c(NC(=O)c2cn3c(n2)CNCC3)cccc1-c1cccc(-c2nc3cc(CN4CCC[C@H]4C(=O)O)c(OC(F)F)cc3o2)c1C [Example 303, ((6-(difluoromethoxy)-2-(2,2′-dimethyl-3′-(5,6,7,8-tetrahydroimidazo[1,2-a]pyrazine-2-carboxamido)-[1,1′-biphenyl]-3-yl)benzo[d]oxazol-5-yl)methyl)-L-proline]	1.6 nM
Cc1c(-c2nc3ccc(CN4CCCC4)cn3n2)cccc1-c1cccc(-c2nc3cc(CN4CCC[C@H]4C(=O)O)c(OC(F)F)cc3o2)c1C [Example 305, ((6-(difluoromethoxy)-2-(2,2′-dimethyl-3′-(6-(pyrrolidin-1-ylmethyl)-[1,2,4]triazolo[1,5-a]pyridin-2-yl)-[1,1′-biphenyl]-3-yl)benzo[d]oxazol-5-yl)methyl)-L-proline]	0.87 nM
Cc1c(-c2nc3cc(CN4CCC[C@H]4C(=O)O)c(OC(F)F)cc3o2)cccc1-c1cccc(N2CCC(N3CCCC3)CC2)c1C [Example 306, ((6-(difluoromethoxy)-2-(2,2′-dimethyl-3′-(4-(pyrrolidin-1-yl)piperidin-1-yl)-[1,1′-biphenyl]-3-yl)benzo[d]oxazol-5-yl)methyl)-L-proline]	1.5 nM

Same assay, conditions: range symbols

SMILES	IC50
COc1nc(-c2cccc(-c3cccc(-c4nc5cc(CN6CCC[C@H]6C(=O)O)c(OC(F)F)cc5o4)c3C)c2Cl)cnc1CNCC1CCC(=O)N1 (stereo partly drawn) [Example 287, ((2-(2′-chloro-3′-(6-methoxy-5-((((5-oxopyrrolidin-2-yl)methyl)amino)methyl)pyrazin-2-yl)-2-methyl-[1,1′-biphenyl]-3-yl)-6-(difluoromethoxy)benzo[d]oxazol-5-yl)methyl)-L-proline]	0.1 to 5 nM
Cc1c(-c2ccc3c(c2)CN(CCC(=O)O)C3)cccc1-c1cccc(-c2nc3cc(CN4CCC[C@H]4C(=O)O)c(OC(F)F)cc3o2)c1C [Example 290, ((2-(3′-(2-(2-carboxyethyl)isoindolin-5-yl)-2,2′-dimethyl-[1,1′-biphenyl]-3-yl)-6-(difluoromethoxy)benzo[d]oxazol-5-yl)methyl)-L-proline]	0.1 to 5 nM
Cc1c(-c2ccc3c(c2)CN(CC(=O)O)C3)cccc1-c1cccc(-c2nc3cc(CN4CCC[C@H]4C(=O)O)c(OC(F)F)cc3o2)c1C [Example 291, ((2-(3′-(2-(carboxymethyl)isoindolin-5-yl)-2,2′-dimethyl-[1,1′-biphenyl]-3-yl)-6-(difluoromethoxy)benzo[d]oxazol-5-yl)methyl)-L-proline]	0.1 to 5 nM
Cc1c(-c2ccc3c(c2)CN(C(C)C(=O)O)C3)cccc1-c1cccc(-c2nc3cc(CN4CCC[C@H]4C(=O)O)c(OC(F)F)cc3o2)c1C (stereo partly drawn) [Example 292, ((2-(3′-(2-(1-carboxyethyl)isoindolin-5-yl)-2,2′-dimethyl-[1,1′-biphenyl]-3-yl)-6-(difluoromethoxy)benzo[d]oxazol-5-yl)methyl)-L-proline]	5 to 50 nM
Cc1c(-c2nc3cc(CN4CCCC4)cc(C#N)c3[nH]2)cccc1-c1cccc(-c2nc3cc(CN4CCC[C@H]4C(=O)O)c(OC(F)F)cc3o2)c1C [Example 295, ((2-(3′-(7-cyano-5-(pyrrolidin-1-ylmethyl)-1H-benzo[d]imidazol-2-yl)-2,2′-dimethyl-[1,1′-biphenyl]-3-yl)-6-(difluoromethoxy)benzo[d]oxazol-5-yl)methyl)-L-proline]	5 to 50 nM
Cc1c(-c2nc3cc(CN4CCC[C@H]4C(=O)O)c(OC(F)F)cc3o2)cccc1-c1cccc(-c2nc3cc(CN4CCCC4)c(F)c(F)c3n2C)c1C [Example 298, ((2-(3′-(6,7-difluoro-1-methyl-5-(pyrrolidin-1-ylmethyl)-1H-benzo[d]imidazol-2-yl)-2,2′-dimethyl-[1,1′-biphenyl]-3-yl)-6-(difluoromethoxy)benzo[d]oxazol-5-yl)methyl)-L-proline]	5 to 50 nM
Cc1c(-c2nc3cc(CN4CCC[C@H]4C(=O)O)c(OC(F)F)cc3o2)cccc1-c1cccc(-c2nc3c(F)c(F)c(CN4CCCC4)cc3n2CC(F)(F)F)c1C [Example 300, ((2-(3′-(4,5-difluoro-6-(pyrrolidin-1-ylmethyl)-1-(2,2,2-trifluoroethyl)-1H-benzo[d]imidazol-2-yl)-2,2′-dimethyl-[1,1′-biphenyl]-3-yl)-6-(difluoromethoxy)benzo[d]oxazol-5-yl)methyl)-L-proline]	> 50 nM
Cc1c(-c2nc3cc(CN4CCCC4)cc(C(F)(F)F)c3[nH]2)cccc1-c1cccc(-c2nc3cc(CN4CCC[C@H]4C(=O)O)c(OC(F)F)cc3o2)c1C [Example 301, ((6-(difluoromethoxy)-2-(2,2′-dimethyl-3′-(5-(pyrrolidin-1-ylmethyl)-7-(trifluoromethyl)-1H-benzo[d]imidazol-2-yl)-[1,1′-biphenyl]-3-yl)benzo[d]oxazol-5-yl)methyl)-L-proline]	5 to 50 nM
Cc1c(-c2nc3cc(CN4CCC[C@H]4C(=O)O)c(OC(F)F)cc3o2)cccc1-c1cccc(N2CCC(NCC3(CO)CC3)CC2)c1C [Example 307, ((6-(difluoromethoxy)-2-(3′-(4-(((1-(hydroxymethyl)cyclopropyl)methyl)amino)piperidin-1-yl)-2,2′-dimethyl-[1,1′-biphenyl]-3-yl)benzo[d]oxazol-5-yl)methyl)-L-proline]	0.1 to 5 nM
Cc1c(-c2nc3cc(CN4CCC[C@H]4C(=O)O)c(OC(F)F)cc3o2)cccc1-c1cccc(N2CCC(CN3CC(C)(C)C3)CC2)c1C [Example 308, ((6-(difluoromethoxy)-2-(3′-(4-((3,3-dimethylazetidin-1-yl)methyl)piperidin-1-yl)-2,2′-dimethyl-[1,1′-biphenyl]-3-yl)benzo[d]oxazol-5-yl)methyl)-L-proline]	0.1 to 5 nM
Cc1c(-c2nc3cc(CN4CCC[C@H]4C(=O)O)c(OC(F)F)cc3o2)cccc1-c1cccc(N2CCC(CN3CCCC3)CC2)c1C [Example 309, ((6-(difluoromethoxy)-2-(2,2′-dimethyl-3′-(4-(pyrrolidin-1-ylmethyl)piperidin-1-yl)-[1,1′-biphenyl]-3-yl)benzo[d]oxazol-5-yl)methyl)-L-proline]	0.1 to 5 nM
Cc1c(-c2nc3cc(CN[C@@H]4CCC[C@@H]4O)ccc3o2)cccc1-c1cccc(-c2nc3cc(CN4CCC[C@@H]4C(=O)O)c(OC(F)F)cc3o2)c1C [Example 310, ((6-(difluoromethoxy)-2-(3′-(5-((((1R,2S)-2-hydroxycyclopentyl)amino)methyl)benzo[d]oxazol-2-yl)-2,2′-dimethyl-[1,1′-biphenyl]-3-yl)benzo[d]oxazol-5-yl)methyl)-D-proline]	0.1 to 5 nM
Cc1c(-c2nc3cc(CN4CCCC4(C)C)ccc3o2)cccc1-c1cccc(-c2nc3cc(CN4CCC[C@H]4C(=O)O)c(OC(F)F)cc3o2)c1C [Example 311, ((6-(difluoromethoxy)-2-(3′-(5-((2,2-dimethylpyrrolidin-1-yl)methyl)benzo[d]oxazol-2-yl)-2,2′-dimethyl-[1,1′-biphenyl]-3-yl)benzo[d]oxazol-5-yl)methyl)-L-proline]	0.1 to 5 nM
Cc1c(-c2nc3cc(CN4CC(C)(C)C4)ccc3o2)cccc1-c1cccc(-c2nc3cc(CN4CCC[C@H]4C(=O)O)c(OC(F)F)cc3o2)c1C [Example 312, ((6-(difluoromethoxy)-2-(3′-(5-((3,3-dimethylazetidin-1-yl)methyl)benzo[d]oxazol-2-yl)-2,2′-dimethyl-[1,1′-biphenyl]-3-yl)benzo[d]oxazol-5-yl)methyl)-L-proline]	0.1 to 5 nM
Cc1c(-c2nc3cc(CN4CCC4C)ccc3o2)cccc1-c1cccc(-c2nc3cc(CN4CCC[C@H]4C(=O)O)c(OC(F)F)cc3o2)c1C (stereo partly drawn) [Example 313, ((6-(difluoromethoxy)-2-(2,2′-dimethyl-3′-(5-((2-methylazetidin-1-yl)methyl)benzo[d]oxazol-2-yl)-[1,1′-biphenyl]-3-yl)benzo[d]oxazol-5-yl)methyl)-L-proline]	0.1 to 5 nM
Cc1c(-c2nc3cc(CN4CCC[C@H]4C(=O)O)c(OC(F)F)cc3o2)cccc1-c1cccc(-c2nc3cc(CN4CCC(C(N)=O)C4)cc(C#N)c3o2)c1C (stereo partly drawn) [Example 315, ((2-(3′-(5-((3-carbamoylpyrrolidin-1-yl)methyl)-7-cyanobenzo [d]oxazol-2-yl)-2,2′-dimethyl-[1,1′-biphenyl]-3-yl)-6-(difluoromethoxy)benzo[d]oxazol-5-yl)methyl)-L-proline]	0.1 to 5 nM
Cc1c(-c2nc3cc(CN4CCC[C@H]4C(=O)O)c(OC(F)F)cc3o2)cccc1-c1cccc(-c2nc3cc(CN4CCC(C)(C#N)C4)cc(C#N)c3o2)c1C (stereo partly drawn) [Example 316, ((2-(3′-(7-cyano-5-((3-cyano-3-methylpyrrolidin-1-yl)methyl)benzo[d]oxazol-2-yl)-2,2′-dimethyl-[1,1′-biphenyl]-3-yl)-6-(difluoromethoxy)benzo[d]oxazol-5-yl)methyl)-L-proline]	5 to 50 nM
